Assay [1] is described as follows: Interaction with the stable free radical DPPH (reducing activity). On the procedure:
The synthesized derivatives were tested for their interaction with the stable free radical 2,2-diphenyl-1-picrylhydrazyl (DPPH) at a concentration of 100 μM after 20 and 60 min (Table 4). DPPH is widely used as a standard method for evaluating antioxidant activity. […] However, lipophilic compounds typically dissolve efficiently in organic solvents when they react with DPPH. The relationship between antioxidant activity and lipophilicity was reported in previous studies.
In vitro assays were carried out to evaluate the reducing activity of the novel derivatives against the DPPH stable radical. Free radical scavenging activity was determined by measuring absorbance at 517 nm after 20 and 60 min at room temperature. NDGA served as the reference compound. (Table 4).
Background: The DPPH test is a chemical assay of radical scavenging.

Assay [2] has as its target T1, soybean lipoxygenase (Glycine max, UniProt P08170).
T1 sequence (P08170 1-839): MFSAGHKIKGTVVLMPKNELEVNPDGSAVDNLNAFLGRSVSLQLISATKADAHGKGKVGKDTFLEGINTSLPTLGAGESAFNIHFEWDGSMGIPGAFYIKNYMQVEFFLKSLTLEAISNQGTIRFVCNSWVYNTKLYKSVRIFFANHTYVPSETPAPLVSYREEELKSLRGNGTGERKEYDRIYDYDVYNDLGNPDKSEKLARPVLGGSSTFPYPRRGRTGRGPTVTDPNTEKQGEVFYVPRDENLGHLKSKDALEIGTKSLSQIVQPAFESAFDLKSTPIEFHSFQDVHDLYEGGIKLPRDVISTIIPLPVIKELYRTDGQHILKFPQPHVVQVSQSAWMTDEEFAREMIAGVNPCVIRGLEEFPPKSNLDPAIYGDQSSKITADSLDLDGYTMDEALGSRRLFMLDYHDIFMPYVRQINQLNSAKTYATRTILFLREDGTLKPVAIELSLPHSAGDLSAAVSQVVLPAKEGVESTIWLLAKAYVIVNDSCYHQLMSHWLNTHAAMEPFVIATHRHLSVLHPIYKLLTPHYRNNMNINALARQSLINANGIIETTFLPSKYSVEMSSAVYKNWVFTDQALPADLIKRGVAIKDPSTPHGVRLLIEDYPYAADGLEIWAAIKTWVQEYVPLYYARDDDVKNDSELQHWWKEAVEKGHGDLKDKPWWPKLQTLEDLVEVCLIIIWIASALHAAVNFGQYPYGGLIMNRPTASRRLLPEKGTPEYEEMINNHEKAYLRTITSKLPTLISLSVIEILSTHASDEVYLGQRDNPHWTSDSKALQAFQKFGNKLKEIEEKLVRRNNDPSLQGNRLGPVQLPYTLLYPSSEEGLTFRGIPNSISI
Kind of assay: Inhibition of soybean lipoxygenase. The class given is biochemical. The following applies: for inhibition at 100 µM: read-out: LOX % Inhibition 100 μM. As for the experimental part: Lipoxygenase (LOX) plays a key role in the formation of leukotrienes, which are important inflammatory mediators. Leukotrienes are considered key therapeutic targets in inflammatory diseases due to their role. Soybean lipoxygenase (LOX), a plant-based enzyme, has long been used as a model system to study the structural and functional characteristics of the lipoxygenase family due to its significant homology with human 5-LOX [39].
Sodium linoleate (0.1 mM), 0.2 mL of soybean lipoxygenase solution (1/9 × 10^−4 w/v in saline), and 10 μL of the test compound stock solution (10 mM in DMSO) were incubated at room temperature. The formation of 13-hydroperoxy-linoleic acid was monitored by measuring absorbance at 234 nm. […] A couple of concentrations of the test compounds were used to calculate the IC50 values.

Assay [3] can be described thus: Inhibition of AAPH-induced linoleic acid peroxidation. An excerpt:
In the lipid peroxidation assay, sodium linoleate was used as the substrate, while 2,2′-azobis(2-methylpropionamidine) dihydrochloride (AAPH) was the peroxyl radical initiator. The formation of 13-hydroperoxy-linoleic acid from linoleic acid was observed by UV-Vis absorption measurements at 234 nm. Trolox was used as a reference compound.
AAPH was used as an alkyl peroxyl radical inducer. In this experiment, the compounds’ ability to prevent linoleic acid oxidation by alkyl peroxyl radicals through absorbance changes at 234nm was evaluated, corresponding to the production of 13-hydroperoxy-linoleic acid. Trolox was used as the reference compound.

The structures appear in SMILES notation. Read-outs that look alike come from different tables or passages of the source.

The term IC50 denotes the concentration needed to halve the response being measured. As a reminder, the inhibition is the share of the control response that was lost under treatment.

On to `Cn1nnnc1SC1=NSN=C(Cl)C1=C(C#N)C#N` [Compound 12b, 2-{3-Chloro-5-[(1-methyl-1H-tetrazol-5-yl)thio]-4H-1,2,6-thiadiazin-4-ylidene}malononitrile], for which, in assay [1], the “RA%, DPPH, 20 min (100 µM)” value was 27% and the “RA%, DPPH, 60 min (100 µM)” value was 36%. Besides, half-maximal inhibition in assay [2] (IC50) was put at 75 µM. Besides, in assay [3], the “%AAPH (100 µM)” value is reported as “No”.
For `O=c1c(Cl)nsnc1Sc1nccs1` [Compound 11g, 3-Chloro-5-(thiazol-2-ylthio)-4H-1,2,6-thiadiazin-4-one], in assay [1], the “RA%, DPPH, 20 min (100 µM)” value worked out at 10% and the “RA%, DPPH, 60 min (100 µM)” value is on record as 7%. In addition, in assay [2], the inhibition at 100 µM was found to be 40%. In assay [3], the “%AAPH (100 µM)” value is reported as “No”.
`O=c1c(Cl)nsnc1Sc1nnnn1-c1ccccc1` [Compound 11e, 3-Chloro-5-[(1-phenyl-1H-tetrazol-5-yl)thio]-4H-1,2,6-thiadiazin-4-one]: in assay [1], the “RA%, DPPH, 20 min (100 µM)” value came to 15% and the “RA%, DPPH, 60 min (100 µM)” value was found to be 17%. The inhibition at 100 µM in assay [2] is 50%. The “%AAPH (100 µM)” value in assay [3] is “No”.
Consider `Cc1ccnc(Sc2nsnc(Cl)c2=O)n1` [Compound 11a, 3-Chloro-5-[(4-methylpyrimidin-2-yl)thio]-4H-1,2,6-thiadiazin-4-one], for which, in assay [1], the “RA%, DPPH, 20 min (100 µM)” value came to 2% and the “RA%, DPPH, 60 min (100 µM)” value was “no”. For the same molecule, the inhibition at 100 µM in assay [2] is 31%. For the same molecule, the “%AAPH (100 µM)” value in assay [3] is “No”.
As for `CCOc1ccc2nc(Sc3nsnc(Cl)c3=O)sc2c1` [Compound 11i, 3-Chloro-5-[(6-ethoxybenzo[d]thiazol-2-yl)thio]-4H-1,2,6-thiadiazin-4-one], in assay [1], the “RA%, DPPH, 20 min (100 µM)” value amounted to 3% and the “RA%, DPPH, 60 min (100 µM)” value was “no”. In assay [2], this molecule showed an IC50 of 67.5 µM. Moreover, the “%AAPH (100 µM)” value in assay [3] is “No”.
In the case of `N#CC(C#N)=C1C(Cl)=NSN=C1Sc1nc2ccccc2o1` [Compound 12c, 2-[3-(Benzo[d]oxazol-2-ylthio)-5-chloro-4H-1,2,6-thiadiazin-4-ylidene]malononitrile], in assay [1], the “RA%, DPPH, 20 min (100 µM)” value worked out at 89% and the “RA%, DPPH, 60 min (100 µM)” value is listed as 92%. For the same molecule, the inhibition at 100 µM in assay [2] worked out at 27%. For the same molecule, in assay [3], the “%AAPH (100 µM)” value is reported as 70%.
As to `CC(=O)Nc1ccc(Sc2nsnc(Cl)c2=O)cc1` [Compound 11d, N-{4-[(5-Chloro-4-oxo-4H-1,2,6-thiadiazin-3-yl)thio]phenyl}acetamide], in assay [1], the “RA%, DPPH, 20 min (100 µM)” value was determined as 1% and the “RA%, DPPH, 60 min (100 µM)” value was 2%. In addition, 85 µM corresponded to half-maximal inhibition in assay [2] (IC50). Moreover, the “%AAPH (100 µM)” value in assay [3] stood at 43%.
The corresponding values for `O=c1c(Cl)nsnc1N1CCN(C(c2ccccc2)c2ccccc2)CC1` [Compound 9b, 3-(4-Benzhydrylpiperazin-1-yl)-5-chloro-4H-1,2,6-thiadiazin-4-one] are 2%, 2%, 55 µM and 20%.
The corresponding values for `O=c1c(Cl)nsnc1N1CCN(c2ccccc2)CC1` [Compound 9a, 3-Chloro-5-(4-phenylpiperazin-1-yl)-4H-1,2,6-thiadiazin-4-one] are 7%, 6%, 7.5 µM and 15%.
As to `Cc1c(C)c2c(c(C)c1O)CCC(C)(C(=O)O)O2` (centres unmarked) [Trolox, reference compound], the “%AAPH (100 µM)” value in assay [3] stood at 93%.
Consider `N#CC(C#N)=C1C(Cl)=NSN=C1N1CCN(c2ccccc2)CC1` [Compound 10a, 2-[3-Chloro-5-(4-phenylpiperazin-1-yl)-4H-1,2,6-thiadiazin-4-ylidene]malononitrile], for which, in assay [1], the “RA%, DPPH, 20 min (100 µM)” value stood at 16% and the “RA%, DPPH, 60 min (100 µM)” value came to 15%. Further, in assay [2], the inhibition at 100 µM came to 46%. Besides, the “%AAPH (100 µM)” value in assay [3] worked out at 27%.
For the molecule `Cn1cnnc1Sc1nsnc(Cl)c1=O` [Compound 11f, 3-Chloro-5-[(4-methyl-4H-1,2,4-triazol-3-yl)thio]-4H-1,2,6-thiadiazin-4-one], in assay [1], the “RA%, DPPH, 20 min (100 µM)” value is 10% and the “RA%, DPPH, 60 min (100 µM)” value came out at 12%. In addition, in assay [2], inhibition was half-maximal at 52.5 µM (IC50). The “%AAPH (100 µM)” value in assay [3] is on record as 7%.
Regarding `CC(Cc1ccc(O)c(O)c1)C(C)Cc1ccc(O)c(O)c1` (centres unmarked) [NDGA, Nordihydroguaiaretic acid, reference compound], in assay [1], the “RA%, DPPH, 20 min (100 µM)” value was determined as 87% and the “RA%, DPPH, 60 min (100 µM)” value came out at 87%. Besides, the “RA%, DPPH, 60 min (100 µM)” value in assay [1] (listed as ΝDGA) was 93%.
With `O=c1c(Cl)nsnc1Sc1nc2ccccc2s1` [Compound 11h, 3-(benzo[d]thiazol-2-ylthio)-5-chloro-4H-1,2,6-thiadiazin-4-one], in assay [1], the “RA%, DPPH, 20 min (100 µM)” value turned out to be 8% and the “RA%, DPPH, 60 min (100 µM)” value is 1%. Also, in assay [2], the inhibition at 100 µM is 33%. The “%AAPH (100 µM)” value in assay [3] is on record as “No”.
As to `O=c1c(Cl)nsnc1Sc1nc2ccccc2o1` [Compound 11c, 3-(Benzo[d]oxazol-2-ylthio)-5-chloro-4H-1,2,6-thiadiazin-4-one], in assay [1], the “RA%, DPPH, 20 min (100 µM)” value came to 21% and the “RA%, DPPH, 60 min (100 µM)” value was determined as 22%. In assay [2], this molecule had a concentration for half-maximal inhibition (IC50) of 77.5 µM. Also, the “%AAPH (100 µM)” value in assay [3] is 5%.
On to `Cn1nnnc1Sc1nsnc(Cl)c1=O` [Compound 11b, 3-Chloro-5-[(1-methyl-1H-tetrazol-5-yl)thio]-4H-1,2,6-thiadiazin-4-one], for which, in assay [1], the “RA%, DPPH, 20 min (100 µM)” value was determined as 3% and the “RA%, DPPH, 60 min (100 µM)” value worked out at 3%. For the same molecule, in assay [2], the inhibition at 100 µM turned out to be 44%. Further, the “%AAPH (100 µM)” value in assay [3] is 45%.
Regarding `N#CC(C#N)=C1C(Cl)=NSN=C1N1CCN(C(c2ccccc2)c2ccccc2)CC1` [Compound 10b, 2-[3-(4-Benzhydrylpiperazin-1-yl)-5-chloro-4H-1,2,6-thiadiazin-4-ylidene]malononitrile], in assay [1], the “RA%, DPPH, 20 min (100 µM)” value is listed as “no” and the “RA%, DPPH, 60 min (100 µM)” value is listed as “no”. For the same molecule, in assay [2] (read-out: LOX IC50), the IC50 stood at 67.5 µM. In addition, the “%AAPH (100 µM)” value in assay [3] is on record as “No”.
For the molecule `Cc1ccnc(SC2=NSN=C(Cl)C2=C(C#N)C#N)n1` [Compound 12a, 2-{3-Chloro-5-[(4-methylpyrimidin-2-yl)thio]-4H-1,2,6-thiadiazin-4-ylidene}malononitrile], in assay [1], the “RA%, DPPH, 20 min (100 µM)” value was 82% and the “RA%, DPPH, 60 min (100 µM)” value worked out at 90%. Moreover, in assay [2], the inhibition at 100 µM turned out to be 41%. For the same molecule, the “%AAPH (100 µM)” value in assay [3] stood at 18%.
